Common to all, as to type: cell-based
The subject of one assay is K562. The assay can be described thus: Antiproliferative activity (MTS assay), K562. The settings on record: Homo sapiens, K562, 96 h, K562 cells. On the procedure:
(§1) Antiproliferative effect is expressed as IC50 values in microMolar final concentration.
(§2) Cells were grown at 37° C. in a humidified atmosphere with 5% CO2 and 95% air. Cells were seeded in 96 well tissue culture plates.
(§3) Compound treatment started after overnight incubation of cells (TO). […] Compound was added to the plate in triplicate wells, and the plates were then incubated for 96 hours. DMSO (compounds diluents) was also included and added to the plate in control wells. Cell viability was then determined by MTS assay using CellTiter 96® AQueous non-radioactive cell proliferation assay system (Promega). A plate reader (Molecular Devices, Vmax) was used to read the optical densities, and the results were used to deduce concentration-response curves. […] The results were analyzed using linear regression software (GraphPad Prism 5; GraphPad Software Inc.).
(§4) The GI50 values (growth inhibitory activity) were determined to emphasize on the correction for the cell count at time zero; thus, the % inhibition of test drug were: [1−(T−T0)/(C−T0)]×100; and these value were used to plot the concentration-response curves, and then analyzed with linear regression software (GraphPad Prism 5).
(Tetrazolium assays rely on reduction of a dye to a coloured formazan, in cell work by metabolically active cells.)

Another assay deals with MDA-MB-468. The assay is described as follows: Antiproliferative activity (MTS assay), MDA-MB-468. The conditions noted are these: Homo sapiens, MDA-MB-468, 96 h, MDA-MB-468 cells. The procedure:
as §1, §2, §3, §4

A further assay has as its system MDA-MB-231. The assay is described as follows: Antiproliferative activity (MTS assay), MDA-MB-231. The settings on record: Homo sapiens, MDA-MB-231, 96 h, MDA-MB-231 cells. The procedure: as §1, §2, §3, §4
The test system of a further assay is Hela. The assay is described as follows: Antiproliferative activity (MTS assay), Hela. The conditions noted are these: Homo sapiens, HeLa, 96 h, Hela cells. On the procedure: as §1, §2, §3, §4

pIC50: −log10 of the molar value.

Consider `Cc1sc(NC(=O)c2ccncc2)nc1-c1ccccc1` [Compound 2], for which the pIC50 (usually the IC50 on a negative log10 scale, so that one unit is a factor of ten) in the assay with K562 was under 5.00; in the assay on MDA-MB-468 it was 5.09; in the assay with MDA-MB-231, under 5.00; with Hela, under 5.00.
Take `Cc1sc(NC(=O)c2cccnc2)nc1-c1ccccc1` [Compound 3]: the pIC50 with K562, in the assay with MDA-MB-468, with MDA-MB-231 and with Hela was under 5.00 each time.
`Cc1cc(C)c(-c2csc(NC(=O)c3ccncn3)n2)c(C)c1` [Compound 5]: the pIC50 in the assay with K562 is 5.24; with MDA-MB-468, 5.34; in the assay on MDA-MB-231 it was 5.13; in the assay on Hela, under 5.00.
Turning to `Cc1ccc(-c2csc(NC(=O)c3ccncc3)n2)cc1` [Compound 6], the pIC50 with K562 is 5.83; in the assay with MDA-MB-468, 5.94; with MDA-MB-231, 6.17; in the assay on Hela, 5.98.
Turning to `Cc1ccc(-c2csc(NC(=O)c3ccc(C#N)cc3)n2)cc1` [Compound 7], the negative-log IC50 (pIC50) in the assay on K562, with MDA-MB-468, in the assay on MDA-MB-231 and with Hela was under 5.00 each time.
With `Cc1cc(C)c(-c2csc(NC(=O)c3ccnnc3)n2)c(C)c1` [Compound 8], the negative logarithm of the IC50 (pIC50) was 5.25 with K562, 5.21 in the assay on MDA-MB-468, 5.51 in the assay with MDA-MB-231 and 5.06 in the assay on Hela.
As for `Cc1cc(C)c(-c2csc(NC(=O)c3cncs3)n2)c(C)c1` [Compound 9], the negative-log IC50 (pIC50) in the assay with K562 was 5.57; in the assay with MDA-MB-468, 5.74; in the assay on MDA-MB-231 it was 5.91; in the assay on Hela, 5.82.
For `COc1ccc(-c2nc(NC(=O)c3ccncc3)sc2C)cc1` [Compound 10] the same measures were under 5.00, 5.05, 5.10 and under 5.00.
Consider `COc1cc(OC)c(-c2csc(NC(=O)c3ccncc3)n2)c(OC)c1` [Compound 11], for which the pIC50 in the assay with K562, in the assay with MDA-MB-468, in the assay with MDA-MB-231 and with Hela was under 5.00 each time.
With `COc1ccc(-c2csc(NC(=O)c3ccncc3)n2)cc1` [Compound 12], the pIC50 in the assay with K562 was 5.41; in the assay with MDA-MB-468 it was 5.54; in the assay on MDA-MB-231, 5.85; in the assay on Hela it was under 5.00.
Take `COc1ccc(-c2csc(NC(=O)c3ccncc3)n2)c(OC)c1` [Compound 13]: the pIC50 with K562, in the assay with MDA-MB-468, in the assay on MDA-MB-231 and in the assay on Hela was under 5.00 throughout.
For `COc1ccc(-c2nc(NC(=O)c3cccnc3)sc2C)cc1` [Compound 14], the pIC50 in the assay on K562, with MDA-MB-468, in the assay on MDA-MB-231 and with Hela was under 5.00 each time.
For `COc1ccc(-c2csc(NC(=O)c3cccnc3)n2)c(OC)c1` [Compound 15], the negative-log IC50 (pIC50) in the assay with K562, in the assay on MDA-MB-468, with MDA-MB-231 and in the assay with Hela was under 5.00 in each case.
As for `COc1ccc(-c2nc(NC(=O)c3ccccn3)sc2C)cc1` [Compound 16], the pIC50 in the assay on K562, in the assay on MDA-MB-468, in the assay with MDA-MB-231 and in the assay with Hela was under 5.00 in each case.
Consider `COc1ccc(-c2csc(NC(=O)c3ccccn3)n2)cc1` [Compound 17], for which the negative logarithm of the IC50 (pIC50) in the assay on K562, with MDA-MB-468, in the assay on MDA-MB-231 and in the assay with Hela was under 5.00 throughout.
Turning to `COc1ccc(-c2csc(NC(=O)c3ccccn3)n2)c(OC)c1` [Compound 18], the negative-log IC50 (pIC50) in the assay on K562, with MDA-MB-468, in the assay on MDA-MB-231 and in the assay with Hela was under 5.00 in each case.
For the compound `Cc1sc(NC(=O)c2ccccn2)nc1-c1ccccc1` [Compound 19], the pIC50 in the assay on K562 is under 5.00; in the assay on MDA-MB-468 it was 5.16; with MDA-MB-231, 5.17; in the assay on Hela it was under 5.00.
As for `COc1cc(-c2csc(NC(=O)c3cccnc3)n2)cc(OC)c1OC` [Compound 20], the negative logarithm of the IC50 (pIC50) in the assay with K562, in the assay on MDA-MB-468, in the assay with MDA-MB-231 and in the assay on Hela was under 5.00 throughout.
As to `COc1ccc(-c2csc(NC(=O)c3cccnc3)n2)c(F)c1` [Compound 21], the negative-log IC50 (pIC50) in the assay on K562, in the assay on MDA-MB-468, in the assay on MDA-MB-231 and in the assay with Hela was under 5.00 in each case.
`COc1ccc(CCC(=O)Nc2nc(-c3ccc(OC)cc3F)cs2)cc1` [Compound 22]: the negative logarithm of the IC50 (pIC50) in the assay with K562 was under 5.00; in the assay with MDA-MB-468 it was 5.38; in the assay on MDA-MB-231, under 5.00; with Hela, under 5.00.
Turning to `COc1ccc(-c2csc(NC(=O)CCc3ccccc3)n2)c(F)c1` [Compound 23], the pIC50 in the assay with K562 was under 5.00; in the assay with MDA-MB-468 it was 5.15; in the assay on MDA-MB-231, under 5.00; in the assay with Hela it was under 5.00.
In the case of `COc1ccc(-c2csc(NC(=O)c3ccccn3)n2)c(F)c1` [Compound 24], the pIC50 in the assay on K562, in the assay on MDA-MB-468, in the assay on MDA-MB-231 and in the assay with Hela was under 5.00 in each case.
Turning to `COc1cc(-c2csc(NC(=O)c3ccccn3)n2)cc(OC)c1OC` [Compound 25], the pIC50 in the assay with K562, in the assay with MDA-MB-468, in the assay with MDA-MB-231 and in the assay with Hela was under 5.00 throughout.
As for `COc1ccc(-c2csc(NC(=O)c3ccncc3)n2)c(F)c1` [Compound 26], the pIC50 in the assay with K562 was 5.61; in the assay on MDA-MB-468 it was 5.65; with MDA-MB-231, 5.16; in the assay with Hela it was under 5.00.
Consider `COc1cc(-c2csc(NC(=O)c3ccncc3)n2)cc(OC)c1OC` [Compound 27], for which the pIC50 with K562, in the assay with MDA-MB-468, in the assay on MDA-MB-231 and in the assay with Hela was under 5.00 each time.
Turning to `Cc1ccc(-c2csc(NC(=O)c3cccnc3)n2)cc1` [Compound 28], the pIC50 in the assay on K562, in the assay with MDA-MB-468, with MDA-MB-231 and in the assay with Hela was under 5.00 in each case.
Turning to `Cc1ccc(-c2csc(NC(=O)c3ccccn3)n2)cc1` [Compound 29], the pIC50 with K562, in the assay on MDA-MB-468, in the assay with MDA-MB-231 and in the assay with Hela was under 5.00 each time.
Consider `Cc1ccc(-c2nc(NC(=O)c3ccc(C#N)cc3)sc2C)cc1` [Compound 30], for which the pIC50 in the assay on K562, in the assay with MDA-MB-468, with MDA-MB-231 and with Hela was under 5.00 throughout.
Take `Cc1ccc(-c2nc(NC(=O)c3cccnc3)sc2C)cc1` [Compound 31]: the negative-log IC50 (pIC50) in the assay on K562, in the assay on MDA-MB-468, in the assay with MDA-MB-231 and with Hela was under 5.00 throughout.
`Cc1ccc(-c2nc(NC(=O)c3ccccn3)sc2C)cc1` [Compound 32]: the pIC50 with K562, in the assay on MDA-MB-468, with MDA-MB-231 and in the assay with Hela was under 5.00 throughout.
Consider `Cc1cc(C)c(-c2csc(NC(=O)c3ccsc3)n2)c(C)c1` [Compound 33], for which the pIC50 in the assay on K562 is under 5.00; in the assay on MDA-MB-468, 6.10; with MDA-MB-231, under 5.00; in the assay with Hela, under 5.00.
Regarding `COc1cc(-c2csc(NC(=O)c3ccncc3)n2)ccc1O` [Compound 34], the negative logarithm of the IC50 (pIC50) in the assay with K562, with MDA-MB-468, with MDA-MB-231 and with Hela was under 5.00 each time.
`COc1cc(-c2csc(NC(=O)c3cccnc3)n2)ccc1O` [Compound 35]: the pIC50 with K562, in the assay on MDA-MB-468, with MDA-MB-231 and in the assay on Hela was under 5.00 throughout.
For `COc1cc(-c2csc(NC(=O)c3ccccn3)n2)ccc1O` [Compound 36], the pIC50 with K562, in the assay with MDA-MB-468, in the assay on MDA-MB-231 and with Hela was under 5.00 each time.
As for `COc1ccc(-c2csc(NC(=O)c3cccnc3)n2)cc1` [Compound 37], the negative logarithm of the IC50 (pIC50) in the assay with K562, with MDA-MB-468, in the assay on MDA-MB-231 and in the assay with Hela was under 5.00 in each case.
On to `Cc1sc(NC(=O)c2ccc(C#N)cc2)nc1-c1ccccc1` [Compound 38], for which the pIC50 with K562 was under 5.00; in the assay on MDA-MB-468, 5.47; in the assay with MDA-MB-231, 5.25; in the assay with Hela it was under 5.00.
Regarding `COc1ccc(-c2nc(NC(=O)c3ccc(C#N)cc3)sc2C)cc1` [Compound 39], the pIC50 in the assay on K562, in the assay with MDA-MB-468, in the assay with MDA-MB-231 and in the assay on Hela was under 5.00 each time.
Consider `COc1ccc(-c2csc(NC(=O)Cc3ccccc3OC)n2)c(OC)c1` [Compound 40], for which the pIC50 in the assay on K562, with MDA-MB-468, in the assay on MDA-MB-231 and with Hela was under 5.00 each time.
As for `COc1ccccc1CC(=O)Nc1nc(-c2ccccc2)c(C)s1` [Compound 41], the negative logarithm of the IC50 (pIC50) in the assay with K562, in the assay on MDA-MB-468, in the assay with MDA-MB-231 and with Hela was under 5.00 throughout.
Consider `Cc1ccc(-c2nc(NC(=O)c3ccncc3)sc2C)cc1` [Compound 43], for which the pIC50 in the assay on K562, with MDA-MB-468, in the assay on MDA-MB-231 and in the assay with Hela was under 5.00 throughout.
